Data as given in US20250144067A1, “PERSONALIZED STARVATION THERAPY FOR CANCER” (Faeth Therapeutics, Inc., priority 2021, published 2025).
Where a name gives a salt, the structure may show the parent alone.

Columns and labels:
[1] = test system: NCI-H292 lung cancer cells; assay: FDA drug screening, complete media vs cholesterol-free media without statin (TABLE 1); type: cell-based, human
[2] = test system: NCI-H292 lung cancer cells; assay: FDA drug screening, complete media vs cholesterol-free media with simvastatin (TABLE 2); type: cell-based, human; conditions: for Cholesterol-free media + simvastatin (0.04 μM) / Complete Media: NCI-H292 cells
[3] = Complete minus Cholesterol-free, greater than 0 enhanced anti-cancer activity, about 0 neutral, below 0 antagonist
[4] = NCI-H292 cells, FDA drug library screen, cholesterol-free media without statin
[5] = NCI-H292 cells, FDA drug library screen, complete media
[6] = FDA drug library screen, cholesterol-free media with simvastatin 0.04 μM
[7] = FDA drug library screen, complete media
[8] = complete media vs cholesterol-free media + simvastatin (0.04 μM), >0 enhanced anti-cancer activity, about 0 neutral, <0 antagonist
[9] = NCI-H292 cells, cholesterol-free media without statin, FDA drug library screen
[10] = NCI-H292 cells, complete media, FDA drug library screen
[11] = complete vs cholesterol-free media, >0 enhanced anti-cancer activity, about 0 neutral, <0 antagonist
[12] = complete media minus cholesterol-free media + simvastatin, >0 enhanced anti-cancer activity, about 0 neutral, <0 antagonist
[13] = FDA library drug in cholesterol-free media with simvastatin 0.04 μM
[14] = FDA library drug in complete media
[15] = cholesterol-free media with simvastatin 0.04 μM, FDA drug library screen (TABLE 2)
[16] = complete media, FDA drug library screen (TABLE 2)
[17] = complete media minus cholesterol-free media + simvastatin (0.04 μM), >0 enhanced anti-cancer activity, about 0 neutral, <0 antagonist
[18] = NCI-H292 cells, cholesterol-free media without statin
[19] = complete vs cholesterol-free media, greater than 0 enhanced anti-cancer activity, about 0 neutral, below 0 antagonists
[20] = drug in cholesterol-free media with simvastatin 0.04 μM
[21] = Complete minus Cholesterol-free, >0 enhanced anti-cancer activity, about 0 neutral, <0 antagonist
[22] = Complete minus Cholesterol-free, greater than 0 enhanced anti-cancer activity, about 0 neutral, below 0 antagonists
[23] = NCI-H292 cells in cholesterol-free media without statin
[24] = NCI-H292 cells in complete media

CCOC(=O)OC(C)OC(=O)[C@@H]1N2C(=O)[C@@H](NC(=O)[C@H](N)c3ccccc3)[C@H]2SC1(C)C (stereo partly shown) [Bacampicillin (hydrochloride)]
Difference [1, 3]: −0.18 | Cholesterol-free [1, 4]: 1.212 | Complete [1, 5]: 1.028 | Cholesterol-free media + simvastatin (0.04 μM) [2, 6]: 1.049 | Complete Media [2, 7]: 0.956 | Difference [2, 8]: −0.09

Sertaconazole (nitrate)
Cholesterol-free [1, 9]: 0.6893 | Complete [1, 10]: 0.8595 | Difference [1, 11]: 0.17 | Cholesterol-free media + simvastatin (0.04 μM) [2, 6]: 0.3702 | Complete Media [2, 7]: 0.8436 | Difference [2, 12]: 0.47

Cc1ccc(/C(=C\CN2CCCC2)c2ccccn2)cc1 [Triprolidine (hydrochloride monohydrate)]
Difference [1, 3]: −0.13 | Cholesterol-free [1, 4]: 1.24 | Complete [1, 5]: 1.107 | Cholesterol-free media + simvastatin (0.04 μM) [2, 13]: 1.806 | Complete Media [2, 14]: 1.191 | Difference [2, 8]: −0.61

CC1OC2(CS1)CN1CCC2CC1 (stereo not shown) [Cevimeline (hydrochloride hemihydrate)]
Cholesterol-free [1, 9]: 0.5656 | Complete [1, 10]: 1.046 | Difference [1, 11]: 0.48 | Cholesterol-free media + simvastatin (0.04 μM) [2, 15]: 0.9444 | Complete Media [2, 16]: 0.9482 | Difference [2, 17]: 0.00

C[C@H]1[C@H](OC(=O)CCC(=O)O)O[C@@H]2O[C@@]3(C)CC[C@H]4[C@H](C)CC[C@@H]1[C@@]24OO3 [Artesunate]
Cholesterol-free [1, 18]: 0.9732 | Complete ([1]; NCI-H292 cells, complete media): 0.63 | Difference [1, 19]: −0.34 | Cholesterol-free media + simvastatin (0.04 μM) [2, 6]: 1.06 | Complete Media [2, 7]: 0.9407 | Difference [2, 8]: −0.12

CNCCc1ccccn1 [Betahistine]
Difference [1, 3]: −0.10 | Cholesterol-free [1, 4]: 1.192 | Complete [1, 5]: 1.087 | Cholesterol-free media + simvastatin (0.04 μM) [2, 20]: 1.266 | Complete Media ([2]; drug in complete media): 1.062 | Difference [2, 8]: −0.20

CC(C)COCC(CN(Cc1ccccc1)c1ccccc1)N1CCCC1 (stereo not shown) [Bepridil hydrochloride]
Difference [1, 21]: −0.19 | Cholesterol-free [1, 18]: 1.009 | Complete ([1]; NCI-H292 cells, complete media): 0.8157 | Cholesterol-free media + simvastatin (0.04 μM) [2, 6]: 1.312 | Complete Media [2, 7]: 1.584 | Difference [2, 12]: 0.27

C[C@@H]1C[C@H]2[C@@H]3CCC4=CC(=O)C=C[C@]4(C)[C@@]3(Cl)[C@@H](O)C[C@]2(C)[C@@]1(OC(=O)c1ccco1)C(=O)CCl [Mometasone furoate]
Difference [1, 21]: −0.24 | Cholesterol-free [1, 18]: 0.8128 | Complete ([1]; NCI-H292 cells, complete media): 0.5699 | Cholesterol-free media + simvastatin (0.04 μM) ([2]; cholesterol-free media with simvastatin 0.04 μM, cell growth value in FDA drug screen): 0.7611 | Complete Media ([2]; complete media, cell growth value in FDA drug screen): 0.8877 | Difference [2, 12]: 0.13

COc1ccc([C@@H]2Sc3ccccc3N(CCN(C)C)C(=O)[C@@H]2OC(C)=O)cc1 [Diltiazem (hydrochloride)]
Cholesterol-free [1, 18]: 1.001 | Complete ([1]; NCI-H292 cells, complete media): 0.6844 | Difference [1, 19]: −0.32 | Cholesterol-free media + simvastatin (0.04 μM) [2, 6]: 1.317 | Complete Media [2, 7]: 1.159 | Difference [2, 8]: −0.16

Nc1ncnc2c1ncn2[C@@H]1O[C@H](CO)[C@@H](O)[C@H]1O [Adenosine]
Difference [1, 3]: −0.14 | Complete [1, 5]: 0.8055 | Cholesterol-free media + simvastatin (0.04 μM) [2, 13]: 1.888 | Complete Media [2, 14]: 1.6 | Difference [2, 8]: −0.29

CCOC(=O)[C@H](CCc1ccccc1)N[C@@H](C)C(=O)N1Cc2cc(OC)c(OC)cc2C[C@H]1C(=O)O [Moexipril (hydrochloride)]
Difference [1, 21]: 0.02 | Cholesterol-free [1, 9]: 1.004 | Complete [1, 10]: 1.024 | Cholesterol-free media + simvastatin (0.04 μM) [2, 13]: 1.452 | Complete Media [2, 14]: 1.081 | Difference [2, 8]: −0.37

C=CCc1cc(OC)c(O)c(C(=O)NCCO)c1 [Alibendol]
Difference [1, 21]: −0.25 | Cholesterol-free [1, 18]: 1.047 | Complete ([1]; NCI-H292 cells, complete media): 0.797 | Cholesterol-free media + simvastatin (0.04 μM) [2, 6]: 0.9518 | Complete Media [2, 7]: 0.8774 | Difference [2, 8]: −0.07

CN(C)C(=O)N[C@H]1CC[C@H](CCN2CCN(c3cccc(Cl)c3Cl)CC2)CC1 [Cariprazine (hydrochloride)]
Difference [1, 3]: −0.14 | Cholesterol-free [1, 4]: 1.158 | Complete [1, 5]: 1.021 | Cholesterol-free media + simvastatin (0.04 μM) [2, 6]: 1.127 | Complete Media [2, 7]: 1.452 | Difference [2, 12]: 0.32

CCOC(=O)[C@@H](N)Cc1ccc(-c2cc(O[C@H](c3ccc(Cl)cc3-n3ccc(C)n3)C(F)(F)F)nc(N)n2)cc1 [Telotristat etiprate]
Difference [1, 22]: −0.51 | Cholesterol-free [1, 23]: 1.323 | Complete [1, 24]: 0.8145 | Cholesterol-free media + simvastatin (0.04 μM) [2, 6]: 1.173 | Complete Media [2, 7]: 1.074 | Difference [2, 8]: −0.10

C=CC(N)CCC(=O)O (stereo not shown) [Vigabatrin (hydrochloride)]
Difference [1, 22]: −0.74 | Cholesterol-free [1, 23]: 1.769 | Complete [1, 24]: 1.024 | Cholesterol-free media + simvastatin (0.04 μM) [2, 15]: 1.122 | Complete Media [2, 16]: 1.063 | Difference [2, 17]: −0.06

Fludarabine (phosphate)
Difference ([1]; Complete minus Cholesterol-free, […]): −0.10 | Complete [1, 5]: 0.9769 | Cholesterol-free media + simvastatin (0.04 μM) ([2]; cholesterol-free media with simvastatin 0.04 μM, […]): 1.095 | Complete Media ([2]; complete media, […]): 1.138 | Difference ([2]; complete media minus cholesterol-free media + simvastatin, […]): 0.04

Cc1oncc1C(=O)Nc1ccc(C(F)(F)F)cc1 [Leflunomide]
Difference [1, 3]: −0.16 | Cholesterol-free [1, 4]: 0.8738 | Complete [1, 5]: 0.714 | Cholesterol-free media + simvastatin (0.04 μM) [2, 15]: 0.9978 | Complete Media [2, 16]: 0.949 | Difference [2, 17]: −0.05

COc1ccc(O)cc1 [Mequinol]
Difference [1, 21]: −0.26 | Cholesterol-free [1, 18]: 0.8829 | Complete ([1]; NCI-H292 cells, complete media): 0.6277 | Cholesterol-free media + simvastatin (0.04 μM) [2, 13]: 1.22 | Complete Media [2, 14]: 0.8263 | Difference [2, 8]: −0.39

O=C(NC(Cc1cc(=O)[nH]c2ccccc12)C(=O)O)c1ccc(Cl)cc1 (stereo not shown) [Rebamipide]
Difference [1, 22]: −0.60 | Cholesterol-free [1, 23]: 1.735 | Complete [1, 24]: 1.132 | Cholesterol-free media + simvastatin (0.04 μM) [2, 6]: 1.344 | Complete Media [2, 7]: 1.19 | Difference [2, 8]: −0.15

COC(=O)c1ccc2c(c1)NC(=O)/C2=C(\Nc1ccc(N(C)C(=O)CN2CCN(C)CC2)cc1)c1ccccc1 [Nintedanib esylate]
Difference [1, 21]: 0.02 | Cholesterol-free [1, 9]: 0.5114 | Complete [1, 10]: 0.5279 | Cholesterol-free media + simvastatin (0.04 μM) [2, 15]: 0.7218 | Complete Media [2, 16]: 0.6577 | Difference [2, 17]: −0.06

CC(=O)OC[C@H]1O[C@@H](n2ccc(=O)[nH]c2=O)[C@H](OC(C)=O)[C@@H]1OC(C)=O [Uridine triacetate]
Cholesterol-free [1, 9]: 1.055 | Complete [1, 10]: 1.37 | Difference [1, 11]: 0.32 | Cholesterol-free media + simvastatin (0.04 μM) [2, 20]: 1.076 | Complete Media ([2]; drug in complete media): 0.8641 | Difference [2, 8]: −0.21

Cl.Cl.OCCN1CCN(CCC=C2c3ccccc3Sc3ccc(C(F)(F)F)cc32)CC1 (mixture of isomers) [Flupentixol dihydrochloride]
Cholesterol-free [1, 18]: 1.101 | Complete ([1]; NCI-H292 cells, complete media): 0.7804 | Difference [1, 19]: −0.32 | Cholesterol-free media + simvastatin (0.04 μM) [2, 6]: 0.5255 | Complete Media [2, 7]: 1.084 | Difference [2, 12]: 0.56
